Read-outs that look alike come from different tables or passages of the source.
Assays:
[1] = system: MHC class I molecules of T1 cells (human lymphoma cell line 174×CEM.); experiment: Effect on expression of MHC class I from T1 cells (flow cytometry, MFI); format: cell-based; conditions: 3 days culture
Outline: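 EC20 is the compound level that lowers MHC class I MFI by 20% relative to compound-free cultures. Read-out was flow cytometry after FITC W6/32 staining.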

[2] = system: (C57BL/6XB6. C—H2^bml) F1 mice; experiment: Life-lengthening effect on graft versus host disease (GVHD); format: in vivo, mouse; conditions: oral, once a day
Protocol: Life-Lengthening Effect on Graft Versus Host Disease (GVHD)
The present test was carried out by modification of the method of Jonathan et al. (Jonathan et al., Blood, p. 93 (1999)). First, 6.0 Gy X-ray was applied to (C57BL/6XB6. C—H2^bml) F1 mice (produced by mating 6XB6.C—H2^bml mice (Jackson Laboratory) with C57BL/6 mice (Charles River Japan); female; 8 to 12-week-old). Thereafter, CD8 positive T cells (1.25×10^6 cells) prepared from the splenic cells of C57BL/6 mice (Charles River Japan; female; 8-week-old) were intravenously injected into the above (C57BL/6XB6. C—H2^bml) F1 mice. From the day before the injection, the test compound having each diluted concentration or 0.5% carboxymethyl cellulose used as a solvent was orally administered to the mice once a day for 7 to 30 consecutive days. The day on which the transplantation was conducted was defined as day 0. Based on the median of the survival days of each group, the prolongation rate of such survival dates was calculated using the following formula (7). Thus, the effect of the test compound on GVHD was analyzed.
[formula] • Eexp: Median of survival days of test compound administration group • Cexp: Median of survival days of solvent administration group

[3] = system: human dendritic cells cultured with human allogenic T cells; experiment: Effect on the ability of human dendritic cells to induce the growth of allogenic T cells ([3H]-thymidine incorporation); format: cell-based; conditions: dendritic cells treated 3 days with test compound and TNF-α, then 5 days with allogenic T cells, read-out: IC50 (inhibition of DNA synthesis of lymphocytes)
Protocol: Effect on the Ability of Human Dendritic Cells to Induce the Growth of Allogenic T Cells
Immature dendritic cells were cultured with a test compound and TNF-α for 3 days by the same method as that described in Test Example 2. The obtained dendritic cells (2.5×10^3 cells/50 μl/well) were cultured together with human allogenic T cells (2.0×10^5 cells/150 μl/well) in a 96-well flat bottom plate at 37° C. for 5 days in an incubator containing 5% carbon dioxide. Thereafter, [^3H]-thymidine (Amersham Pharmacia Biotech) was added thereto at an amount of 1 μCi/10 μl/well, 16 hours before completion of the culture. After completion of the culture, cells were captured on a glass filter using a cell harvester (Skatron Instrument) and then dried. Thereafter, Scintillator ACS-II (Amersham Pharmacia Biotech) was added thereto, and the radioactivity of [^3H]-thymidine incorporated into the cells were then measured using a liquid scintillation counter. The inhibition rate of the DNA synthesis of lymphocytes was calculated using the following formula (3). Thereafter, the concentration of a test compound necessary for inhibition of 50% (IC50 value) was obtained.
[formula] • Eexp: The amount of [^3H]-thymidine incorporated into cultured cells containing test compound • Cexp: The amount of [^3H]-thymidine incorporated into cultured cells containing no test compounds

[4] = system: MHC class I molecules of human peripheral blood-derived dendritic cells; experiment: Effect on expression of MHC class I molecules from human peripheral blood-derived dendritic cells; format: cell-based; conditions: dendritic cells matured with TNF-α, 3 days; read-out: EC50 (reduction of 50% of the number of cells wherein MHC class I molecules were highly expressed)
Description: Effect on Expression of MHC Class I Molecules from Human Peripheral Blood-Derived Dendritic Cells
Monocytes were isolated from human peripheral blood by the specific gravity centrifugation method. Thereafter, using mouse anti-human CD14 antibody-binding microbeads and a magnetic cell separation system (Miltenyi Biotec), CD14 positive cells were separated from the peripheral blood monocytes. The separated CD14 positive cells were suspended in an RPMI 1640 medium containing 10% FBS, and the suspension was then inoculated in a 6-well plate, resulting in a concentration of 1.0×10^6 cells/well. It was cultured at 37° C. for 20 minutes in an incubator containing 5% carbon dioxide. […] Thereafter, RPMI 1640 containing a 500 U/ml human recombinant […] (hereinafter referred to as GM-CSF; Anapure Bioscientific), 50 ng/ml human recombinant interleukin 4 (hereinafter referred to as IL-4; Pepro Tech), and 10% FBS, was added to the remaining suspension at a concentration of 2 ml/well. The obtained mixture was then cultured at 37° C. in an incubator containing 5% carbon dioxide. When adhesive CD14 positive cells are cultured in the presence of GM-CSF and IL-4, the CD14 positive cells were differentiated into non-adhesive immature dendritic cells. After the cells had been cultured for 7 days, non-adhesive cells were recovered to obtain immature dendritic cells. Using a 6-well plate, the immature dendritic cells (2.5×10^5 cells/well) were cultured in RPMI 1640 containing a 100 U/ml human recombinant tumor necrosis factor-α (hereinafter referred to as TNF-a; Pepro Tech), a test compound, and 10% FBS, at 37° C. for 3 days in an incubator containing 5% carbon dioxide. The dendritic cells became mature as a result of the presence of TNF-α, but in the present test, a test compound was allowed to simultaneously act on the cells. The mature dendritic cells were then stained with fluoroisothiocyanate-labeled mouse anti-human MHC class I monoclonal antibody (an antibody generated from the cell line W6/32 (ATCC No. CRL 1991)). The rate of the number of cells wherein MHC class I molecules were highly expressed to the total number of cells was measured by flow cytometry. The reduction rate of the number of cells wherein MHC class I molecules were highly expressed was calculated using the following formula (2), and the concentrations of test compounds necessary for reduction of 50% (EC50 values) were obtained.
[formula] • Eexp: (The number of cells, wherein MHC class I molecules are highly expressed, in cultured cells containing test compound)/(the total number of cells) • Cexp: (The number of cells, wherein MHC class I molecules are highly expressed, in cultured cells containing no test compounds)/(the total number of cells)

mouse splenic cells = experiment: Inhibitory action on blastogenesis of mouse splenic cells ([3H]-thymidine incorporation); format: cell-based; conditions: 72 hours
Protocol: Inhibitory Action on Blastogenesis of Mouse Splenic Cells
The spleen was excised from each of BALB/c mice (Charles River Japan; female; 10-week-old), and it was allowed to pass through a mesh to obtain a single cell suspension. This single cell suspension was prepared to be 1.0×10^6 cells/ml. Thereafter, 200 μl of the suspension was fractionated into each well of a 96-well plate. Thereafter, as blastogenic stimulation, 5 μg/ml concanavalin A (Pharmacia) or 25 μg/ml Escherichia coli-derived lipopolysaccharide (DIFCO) was added to the well, and then, a solution containing a test compound with each different concentration was further added thereto at an amount of 20 μl/well. The obtained mixture was cultured at 37° C. for 72 hours in an incubator containing 5% carbon dioxide. Thereafter, a 1 μCi/10 μl/well [^3H]-thymidine solution was added thereto 64 hours after initiation of the culture. After completion of the culture (72 hours later), the cells were captured on a filter using a cell harvester, and they were then dried. Thereafter, scintillator was added thereto, and the radioactivity of [^3H]-thymidine incorporated into the cells was then measured using a liquid scintillation counter. The inhibition rate of the DNA synthesis was calculated using the aforementioned formula (3). Thereafter, the concentration of a test compound necessary for inhibition of 50% (IC50 value) was obtained.

[5] = Mus musculus, Lymphocyte, 5 μg/ml concanavalin A, read-out: Lymphocyte blastogenesis IC50 (μM), ConA stimulation
[6] = Mus musculus, Lymphocyte, 25 μg/ml Escherichia coli-derived lipopolysaccharide, read-out: Lymphocyte blastogenesis IC50 (μM), LPS stimulation
[7] = 5 μg/ml concanavalin A, read-out: Lymphocyte blastogenesis IC50 (μM), ConA stimulation
[8] = 25 μg/ml Escherichia coli-derived lipopolysaccharide, read-out: Lymphocyte blastogenesis IC50 (μM), LPS stimulation

Row | EC50 [4] [µM] | Structure (SMILES) | EC20 (concentration necessary for suppressing 20% of the expression level of MHC class I molecules) [1] [µM] | IC50 ([3]; Homo sapiens) [µM] | other results
1 |  | COc1ccc(-c2ccnc3nc(NC(=O)NC(C)CCCC(C)(C)O)nn23)cc1 (racemic) [Example 219] | 0.05 |  | Lengthening rate of survival days (%) ([2]; 25 mg/kg/single administration): 200%
2 |  | COc1ccc(-c2ccnc3nc(NC(=O)NC(C)CCC(C)(C)O)nn23)cc1 (racemic) [Example 317, (±)-1-(4-hydroxy-1,4-dimethylpentyl)-3-[7-(4-methoxyphenyl)-[1,2,4]triazolo[1,5-a]pyrimidin-2-yl]urea] | 0.06 |  | Lengthening rate of survival days (%) ([2]; 30 mg/kg/single administration): 24%
3 | 0.46 | O=C(Nc1ccccc1)Nc1nc2nccc(-c3cccs3)n2n1 [Example 001, 1-phenyl-3-[(7-thiophen-2-yl)-[1,2,4]triazolo[1,5-a]pyrimidin-2-yl]urea] | 1.1 | 1.23 | 
4 |  | CC(=O)c1cccc(NC(=O)Nc2nc3nccc(-c4cccs4)n3n2)c1 [Example 005] |  |  | IC50 [3]: 0.65 µM
5 | 0.66 | O=C(Nc1nc2nccc(-c3cccs3)n2n1)NC1CCCCC1 [Example 007] | 0.18 | 0.97 | 
6 | 0.13 | COc1ccc(-c2ccnc3nc(NC(=O)NC4CCCCC4)nn23)cc1 [Example 015] | 0.045 | 0.38 | 
7 | 0.29 | COc1ccc(-c2ccnc3nc(NC(=O)NCc4ccccc4)nn23)cc1 [Example 018] | 0.052 |  | 
8 | 0.16 | O=C(Nc1nc2nccc(-c3ccc(O)cc3)n2n1)NC1CCCCC1 [Example 024] | 0.24 | 0.82 | 
9 | 0.22 | COc1ccc(-c2ccnc3nc(NC(=O)NC4CCCC4)nn23)cc1 [Example 027] | 0.067 |  | 
10 | 0.48 | COc1ccc(-c2ccnc3nc(NC(=O)NC(C)C)nn23)cc1 [Example 030] | 0.4 | 1.25 | 
11 | 0.12 | COc1ccc(-c2ccnc3nc(NC(=O)NC(C(=O)OC(C)(C)C)C(C)C)nn23)cc1 (stereo not shown) [Example 045] | 0.03 | 0.28 | IC50 (mouse splenic cells; [5]): 0.41 µM; IC50 (mouse splenic cells; [6]): 0.09 µM
12 | 0.21 | COc1ccc(-c2ccnc3nc(NC(=O)N[C@@H](C)C(=O)OC(C)(C)C)nn23)cc1 [Example 049] | 0.23 | 1.63 | 
13 |  | COc1ccc(-c2ccnc3nc(NC(=O)N[C@H](C(=O)NCCN(C)C)C(C)C)nn23)cc1 [Example 057] |  |  | IC50 [3]: 2.7 µM
14 | 0.53 | COc1ccc(-c2ccnc3nc(NC(=O)NC4CCN(Cc5ccccc5)CC4)nn23)cc1 [Example 059] | 0.23 |  | 
15 | 2.22 | COc1ccc(-c2ccnc3nc(NC(=O)NCCCN4CCOCC4)nn23)cc1 [Example 067] | 0.3 |  | 
16 | 2.85 | COc1ccc(-c2ccnc3nc(NC(=O)N[C@H](C(=O)N4CCN(C)CC4)C(C)C)nn23)cc1 [Example 069] | 0.41 |  | 
17 | 0.67 | COc1ccc(-c2ccnc3nc(NC(=O)NC(C(=O)NCC4CCCO4)C(C)C)nn23)cc1 (stereo not shown) [Example 071] | 0.53 |  | 
18 | 0.22 | COc1ccc(-c2ccnc3nc(NC(=O)N[C@@H](C)c4ccccc4)nn23)cc1 [Example 101] | 0.21 | 0.625 | IC50 (mouse splenic cells; [5]): 0.58 µM; IC50 (mouse splenic cells; [6]): 0.18 µM
19 |  | COc1ccc(-c2ccnc3nc(NC(=O)NCCC(=O)NCC4CCCO4)nn23)cc1 (stereo not shown) [Example 158] | 0.39 |  | IC50 [3]: 0.69 µM
20 |  | COc1ccc(-c2ccnc3nc(NC(=O)N[C@@H](C)CCCC(C)C)nn23)cc1 [Example 160] | 0.014 |  | IC50 [3]: 0.156 µM; IC50 (mouse splenic cells; [7]): 0.07 µM; IC50 (mouse splenic cells; [8]): 0.04 µM
21 |  | CC(C)NC(=O)Nc1nc2nccc(-c3cccc(OCCC4OCCCO4)c3)n2n1 [Example 183] | 0.22 |  | IC50 (mouse splenic cells; [7]): 0.55 µM; IC50 (mouse splenic cells; [8]): 0.14 µM
22 |  | CC(C)NC(=O)Nc1nc2nccc(-c3cccc(OCC4CCCO4)c3)n2n1 (stereo not shown) [Example 184] | 0.21 |  | IC50 (mouse splenic cells; [7]): 0.63 µM; IC50 (mouse splenic cells; [8]): 0.29 µM

Reference: patent US7598244B2, “[1,2,4]triazolo[1,5,a]pyrimidin-2-ylurea derivative and use thereof” (Nippon Kayaku Kabushiki Kaisha, priority 2003, dated 2009)
